Measured values published in a melting point compilation (Tetko et al.).
Peptide text beside a SMILES is read from it.

| Compound | melting point [°C] |
| --- | --- |
| CCN(CC)c1ccc(/C=C2\CC/C(=C\c3ccc(N(CC)CC)cc3)C2=O)cc1 | 186 to 189 |
| O=C(Nc1ccccc1)c1cc2ccccc2cc1O | 248 |
| O=C(O)c1ccc(F)c(F)c1F | 141 |
| Cc1cc(C(C)(C)C)cc(C)c1I | 56 |
| CCCCCCCCCCCCCCCCCCCCCCCCCCCCCC[Si](Cl)(Cl)Cl | 60 to 80 |
| Nc1cc(=O)oc2ccccc12 | 232 to 234 |
| O=C(O)CCCc1ccc2c(c1)OCCO2 | 76 to 78 |
| Cc1cccc2cccc(C)c12 | 65 |
| O=[N+]([O-])c1cccc(-c2nnc3n2CN(c2cccc([N+](=O)[O-])c2)CS3)c1 | 240 |
| COc1ccc(C=NN=C2NC(=O)C(=Cc3ccccc3)S2)cc1 | 255 to 257 |
| O=[N+]([O-])c1cccc(C2OCCO2)c1 | 54 |
| Nc1ccc(N=Nc2ccc(S(N)(=O)=O)cc2)c(N)c1 | 250 |
| O=C(NCC[C@H](O)C(=O)O)OCc1ccccc1 | 72 to 78 |
| OCc1cccc(N2CCOCC2)c1 | 51 to 54 |
| CC1CCC(C(C)C)C(OC(=O)C#Cc2ccccc2)C1 (configuration not stated) | 64 |
| COc1cc(CCn2cccc2C(=O)O)cc(OC)c1OC | 132 |
| Cc1cc(C)c(CS(=O)(=O)Cc2c(C)cc(C)cc2C)c(C)c1 | 297 to 300 |
| Cn1c2ccccc2c2cc([N+](=O)[O-])ccc21 | 172 to 174 |
| CN(C)C(=O)C(C(F)(F)F)C(F)(F)F | 54 |
| O=C(CCCNC(=O)CCCCC(=O)NCCCC(=O)NO)NO | 163 |
| O=C(Oc1c(F)c(F)c(F)c(F)c1F)Oc1c(F)c(F)c(F)c(F)c1F | 48 to 51 |
| C#CC(O)c1ccccc1 (configuration not stated) | 28 |
| CNC(=O)ON=CC(C)(C)S(C)(=O)=O | 141 |
| CC(=O)OC(c1ccccc1)C(Cl)(Cl)Cl (configuration not stated) | 87.5 |
| Cc1ccccc1C1=Cc2ccccc2C2(OCCO2)O1 | 75 |

| Compound | melting point [°C] |
| --- | --- |
| Nc1ccncc1C=O | 110 |
| Cc1ccccc1NCCNc1ccccc1C | 72 |
| O=C(N[C@H]1CCCC[C@H]1C(=O)O)OCc1ccccc1 (relative stereo) | 130 to 136 |
| CCCCC(C)CC(O)C=CC1C(O)CC(=O)C1CCCCC=CC(=O)O (configuration not stated) | 97 |
| O=C(O)c1cccc(COc2ccccc2)c1 | 118 to 119 |
| NCC(=O)N[C@@H](CCC(=O)O)C(=O)O (H-Gly-Glu-OH) | 155 to 158 |
| CCOC(=O)C1=C(CBr)NC(C)=C(C(=O)OC)C1c1cccc([N+](=O)[O-])c1 (configuration not stated) | 106 |
| N#Cc1ccc2nonc2c1 | 86 to 88 |
| CCOC(=O)c1csc(Cn2cnc(Cl)c2Cl)n1 | 126 to 129 |
| CN(C)c1ccc(C2Nn3c(COc4ccccc4)nnc3S2)cc1 (configuration not stated) | 143 to 144 |
| C=C1C(=O)OC2CC3(C)CCCC(C)C3=CC12 (configuration not stated) | 76 |
| O=C(O)CN(CC(=O)O)c1ccccc1OCCOc1ccccc1N(CC(=O)O)CC(=O)O | 177 to 179 |
| CCOC(=O)c1cc(O)c(O)c(O)c1 | 151 to 154 |
| Cn1cnc2ccccc21 | 61 |
| CCOC(=O)C(=Cc1cc(N)cc(C=C(C(=O)OCC)C(=O)OCC)c1)C(=O)OCC | 174 |
| CN1CCCN(c2ccc(C=O)cc2)CC1 | 44 to 46 |
| OCCC(F)(F)C(F)(F)C(F)(F)C(F)(F)C(F)(F)C(F)(F)C(F)(F)C(F)(F)C(F)(F)C(F)(F)F | 92.7 |
| CN(C)CCCN1c2ccccc2S(=O)c2ccc(Cl)cc21 (configuration not stated) | 115 |
| O=C(Cl)c1cccnc1Sc1ccccc1 | 71 to 74 |
| CCCNC(=O)C(C(F)(F)F)C(F)(F)F | 105 to 107 |
| C[Si](C)(C)C#Cc1ccccn1 | 42 to 45 |
| CCOC(=O)C12CCC(C(=O)OCC)(CC1=O)C(=O)C2 | 111 to 113 |
| CN1CCc2cc3c(cc2C1C1OC(=O)c2c1ccc1c2OCO1)OCO3 (configuration not stated) | 194 |
| O=C(CCl)Nc1cccc(Cl)c1Cl | 104 to 106 |
| Cc1nc2ccccc2c(C(=O)O)c1O | 200 |

| Compound | melting point [°C] |
| --- | --- |
| NCCC(c1ccccc1)c1ccccc1 | 29 to 31 |
| Cc1nc(-c2ccccc2)sc1C(=O)O | 214 to 215 |
| CC(=O)OC1CC2C(CCC3(C)C(C(C)CCCC(C)C)CCC23)C2(C)CCC(=O)C=C12 (configuration not stated) | 101 to 102 |
| O=[N+]([O-])c1c(Cl)cccc1Cl | 72.5 |
| O=C1C(=Cc2ccccc2)Cc2ccccc21 | 110 |
| CCC=C(c1ccccc1)c1ccccc1 | -1 |
| CN(C)c1ccc(C(O)c2ccc(N(C)C)cc2)cc1 | 101 |
| Cc1c(C)c2c(c3c1CC3=O)CC2=O | 161 |
| CCCCOc1ccc(-c2nnc3sc(/C=C/c4ccccc4)nn23)cc1 | 79 to 81 |
| COc1ccc(CC(N)=O)cc1 | 186 |
| CCOC(=O)c1c(-c2ccccc2)csc1NC(=O)c1ccccc1Cl | 131 to 132 |
| CCOC(=O)c1cnc2cc(-c3cccs3)nn2c1C | 151 to 153 |
| c1ccc2c(c1)-c1ccccc1C2c1ccncc1 | 142 to 145 |
| CC1=NN(c2ccccc2)C(=O)C1Cc1ccccc1O (configuration not stated) | 140 |
| FCC(F)F | -84 |
| CC1CC(=O)C(C)(C)C1 (configuration not stated) | -40.6 |
| CC(=O)c1ccc(Cc2ccccc2)cc1 | 38 to 40 |
| O=C(O)CCC(=O)c1ccc2c(c1)OCCCO2 | 149 to 151 |
| O=C(c1ccc(C(=O)C(Cl)(Cl)Cl)cc1)C(Cl)Cl | 136 |
| CCCCCOC(=O)C1=C(C)NC(=O)NC1c1ccc2c(c1)OCO2 (configuration not stated) | 144 |
| O=C(C=Cc1ccco1)C=Cc1ccco1 | 60.5 |
| C(=N\c1cc2c(cc1CCc1ccccc1)CC(c1ccccc1)N2)/c1ccccc1 (configuration not stated) | 118 |
| CCOC(=O)c1csc(-c2cccc(Cl)c2Cl)n1 | 108 to 110 |
| O=C=Nc1ccc(F)c([N+](=O)[O-])c1 | 27 to 28 |
| CC=CC(=O)OC1CC2OC3C=C(C)C(=O)CC3(C)C1(C)C21CO1 (configuration not stated) | 118 |

| Compound | melting point [°C] |
| --- | --- |
| CC[C@H](C)[C@H](NC(=O)CN)C(=O)O (H-Gly-Ile-OH) | 248 |
| c1ccc2c(c1)-c1ccc3ccc4cccc5cc-2c1c3c45 | 164 |
| c1ccc2c(c1)NC1(CCCC1)O2 | 221 |
| CC(=NO)c1ccc2c(c1)CC(C)O2 (configuration not stated) | 83 to 85 |
| CC1=C(C(=O)OCC(C)C)C(c2ccco2)NC(=O)N1 (configuration not stated) | 170 to 171 |
| Clc1c(Br)c(Br)c2c(c1Br)Oc1c(Br)c(Br)c(Cl)c(Br)c1O2 | 385 |
| Clc1cc(Cl)c(-c2c(Cl)cc(Cl)c(Cl)c2Cl)cc1Cl | 83 |
| CCCCC(=O)c1ccc2c(c1)OCCOCCOc1cc(C(=O)CCCC)ccc1OCCOCCO2 | 117 to 133 |
| CC(C)(O)CCc1ccccc1O | 114 to 116 |
| Cc1cc(C)c(CC(=O)c2oc3ccccc3c2NC(=O)c2ccccc2)c(C)c1 | 198 to 199 |
| O=Cc1csc(-c2ccccc2)n1 | 51 to 52 |
| CCOC(=O)c1sc2nccnc2c1N | 120 |
| Nc1ccc(Cc2ccc(N)c(Cl)c2)cc1Cl | 110 |
| CC(C)(C)OC(=O)N[C@@H](Cc1ccc(Cl)cc1Cl)C(=O)O | 132 |
| C=Cc1ccc2c(c1)OCCOCCOCCOCCOCCO2 | 57 to 60 |
| N#Cc1c(-c2ccc(Cl)cc2)n[nH]c1N | 216 to 217 |
| NS(=O)(=O)c1cccc(Br)c1 | 155 to 158 |
| Cc1cccc(N)c1N | 63.5 |
| O=c1[nH]c2scc(-c3ccccc3)c2c(=O)n1-c1ccc(Cl)c(Cl)c1 | 274 to 276 |
| Cc1ccccc1CC(NC(=O)OCC1c2ccccc2-c2ccccc21)C(=O)O (racemic) | 157 to 164 |
| Cc1cc(Cl)ccc1N=CN(C)C | 35 |
| C=Cc1c(C)cc(C)cc1C | -37 |
| CCOC(=O)CC1NCCNC1=O (configuration not stated) | 102 to 105 |
| CCOC(=O)C(CSC(=O)C(C)(C)Br)NC(C)=O (configuration not stated) | > 20 |
| CCOP(=O)(O)C(N)=O | 174 |

| Compound | melting point [°C] |
| --- | --- |
| Cc1ccc(-c2ccccc2)s1 | 47.5 |
| OC12CC3CC(CC(C3)C1)C2 | 240 |
| O=C(CN1CCN(Cc2ccc3c(c2)OCO3)CC1)N1c2ccccc2Sc2ccccc21 | 142 |
| Clc1ncnc2sc(-c3ccccc3)cc12 | 139 to 140 |
| CCOc1cc(Oc2ccc(C(F)(F)F)cc2Cl)ccc1[N+](=O)[O-] | 85.3 |
| Cc1cc(Sc2nnc(N)s2)c2ccccc2n1 | 197 to 200 |
| CCOC(=O)CC(=O)c1ccncc1 | 53 to 59 |
| Nc1ccc(O)cc1[N+](=O)[O-] | 151 |
| OCC(O)CI (configuration not stated) | 48.5 |
| C=CCOc1ccc2c(=O)cc(C(=O)OCC)oc2c1CCC | 84 to 86 |
| Cc1cc(C)c2c(=O)n3c(cc2c1)CCCC3 | 62 |
| c1ccc(-c2ccc(N=C(CNc3ccc(-c4ccccc4)cc3)Nc3ccc(-c4ccccc4)cc3)cc2)cc1 | 190 |
| Nc1ccc(N2CCCCC2)cc1 | 27 |
| C=CCC(/C=C1\C(=O)C2(C)CCC1C2(C)C)(/C=C1\C(=O)C2(C)CCC1C2(C)C)C(=O)OCC (configuration not stated) | 148 |
| C1OCC2(CO1)COCOC2 | 48.3 |
| CC(CCC(=O)O)C1CCC2C3C(O)CC4CC(O)CCC4(C)C3CCC12C (configuration not stated) | 203 |
| NC(=S)CSc1ccccc1 | 88 to 91 |
| N#Cc1cc(F)ccc1F | 33 to 35 |
| COc1ccc(C2Nn3c(nnc3-c3ccc([N+](=O)[O-])cc3)S2)cc1 (configuration not stated) | 153 |
| O=[N+]([O-])c1ccc2ccccc2c1 | 79 |
| O=C(O)c1ccc([N+](=O)[O-])c(F)c1 | 175 |
| CCOC(=O)CC(=O)C(F)(F)F | -39 |
